Laboratory results: patent US10093713B2, “GIP-GLP-1 dual agonist compounds and methods” (priority 2013, dated 2018)
pEC50: −log10 of the molar value. Read-outs that look alike come from different tables or passages of the source. *1 amine or outer side, *2 acyl side, *3 side chain or, on linkers, in order; H or OH if unused. Where a SMILES comes first, the peptide text is derived from it. Side-chain parts run from the residue outwards. [ ]: non-standard residue; d: D form. The star is where a group is joined. C18 diacid = O=C(O)CCCCCCCCCCCCCCCCC(=O)*; γGlu = O=C(O)[C@H](CCC(=O)[*:2])N[*:1]; AEEA = NCCOCCOCC(=O)O; Aib = CC(C)(N)C(=O)O

Experiments:
[1] = target: T1, human GIP R (Homo sapiens, UniProt P48546); assay: Human GIP receptor (GIP R) activity assay, cAMP induction (AlphaScreen) in HEK293 cells; assay type: cell-based; conditions: read-out: hGIP-R cAMP EC50 average value
T1 construct: expressed in transfected cells
T1 sequence (P48546 22-466): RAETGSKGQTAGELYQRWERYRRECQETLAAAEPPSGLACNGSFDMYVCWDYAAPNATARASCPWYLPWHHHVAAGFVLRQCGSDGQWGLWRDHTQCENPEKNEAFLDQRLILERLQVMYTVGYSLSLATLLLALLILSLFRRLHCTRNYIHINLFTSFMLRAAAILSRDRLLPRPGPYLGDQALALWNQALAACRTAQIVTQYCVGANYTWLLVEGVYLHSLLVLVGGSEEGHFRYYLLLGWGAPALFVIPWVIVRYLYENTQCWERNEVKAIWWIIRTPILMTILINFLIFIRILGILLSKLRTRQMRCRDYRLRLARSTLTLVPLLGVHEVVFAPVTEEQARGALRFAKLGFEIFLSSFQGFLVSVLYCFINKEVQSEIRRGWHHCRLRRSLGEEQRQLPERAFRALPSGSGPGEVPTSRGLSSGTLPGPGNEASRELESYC
Procedure: (§1) Human GIP Receptor (GIP R) and GLP-1 Receptor (GLP-1 R) Activity Assay
(§2) In vitro effects of peptide conjugates of the invention were assessed by measuring the induction of cAMP following stimulation of the respective receptor by GIP, GLP1 or analogues of these, as outlined in the invention, using the AlphaSceen® cAMP kit from Perkin-Elmer according to instructions. Briefly, HEK293 cells expressing the human GIP R or GLP-1 R (stable cell lines generated through transfection of the cDNA for human GIP R or GLP-1 and selection of stable clones) were seeded at 30,000 cells/well in 96-well microtiter plates coated with 0.01% poly-L-lysine, and grown for 1 day in culture in 200 μl growth medium (DMEM, 10% FCS, Penicillin (100 IU/ml), Streptomycin (100 μg/ml)). On the day of analysis, growth medium was removed and the cells were washed once with […] Tyrode's buffer (Tyrode's Salts (9.6 g/l), 10 mM HEPES, pH 7.4). […] The Assay buffer was removed and cells are lysed in 80 μl Lysis buffer (0.1% w/v BSA, 5 mM HEPES, 0.3% v/v Tween-20) per well. From each well 10 μl lysed cells was transferred to a 384-well plate and mixed with 15 μl bead-mix (1 Unit/15 μl anti-cAMP Acceptor Beads, 1 Unit/15 μl Donor Beads, and 1 Unit/15 μl Biotinylated cAMP in Assay Buffer). The plates were mixed and incubated in the dark for an hour at room temperature before measuring using an Envision™ plate reader (Perkin-Elmer).
(§3) The resulting cAMP curves were plotted as absolute cAMP concentrations (nM) over log (test compound concentration) and analyzed using the curve fitting program XLfit.
(§4) Parameters calculated to describe both the potency as well as the agonistic activity of each test compound on the receptors were:
(§5) EC50, a concentration resulting in a half-maximal elevation of cAMP levels, reflecting the potency of the test compound.

[2] = target: T2, human GLP-1 R (Homo sapiens, UniProt P43220); assay: Human GLP-1 receptor (GLP-1 R) activity assay, cAMP induction (AlphaScreen) in HEK293 cells; assay type: cell-based
T2 construct: expressed in transfected cells
T2 sequence (P43220 24-463): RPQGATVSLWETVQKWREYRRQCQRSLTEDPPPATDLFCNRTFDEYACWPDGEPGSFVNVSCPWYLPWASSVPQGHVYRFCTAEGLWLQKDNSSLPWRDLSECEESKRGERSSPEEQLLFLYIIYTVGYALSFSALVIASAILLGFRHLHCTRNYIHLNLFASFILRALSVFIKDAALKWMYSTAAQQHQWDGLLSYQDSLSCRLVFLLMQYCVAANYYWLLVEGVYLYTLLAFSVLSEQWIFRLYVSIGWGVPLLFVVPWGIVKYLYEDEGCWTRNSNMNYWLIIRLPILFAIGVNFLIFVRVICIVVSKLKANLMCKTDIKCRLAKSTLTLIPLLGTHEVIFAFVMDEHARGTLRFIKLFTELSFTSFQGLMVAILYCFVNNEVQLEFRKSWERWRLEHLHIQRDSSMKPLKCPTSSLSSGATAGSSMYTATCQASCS
Procedure: as §1, §2, §3, §4, §5

[3] = Table 2, HEK293 cells expressing human GIP R
[4] = Table 2a, secondary assay study
[5] = Table 3, most comprehensive data
[6] = Table 2, HEK293 cells expressing human GLP-1 R, read-out: hGLP1-R cAMP EC50 average value
[7] = Table 2a, secondary assay study, read-out: hGLP1-R cAMP EC50 average value
[8] = Table 3, most comprehensive data, read-out: hGLP-1-R cAMP EC50 average value

Row | SMILES | pEC50 [1, 3] | pEC50 [1, 4] | pEC50 [1, 5] | pEC50 [2, 6] | pEC50 [2, 7] | pEC50 [2, 8]
1 | CC[C@H](C)[C@H](NC(=O)[C@H](CO)NC(=O)[C@H](Cc1ccc(O)cc1)NC(=O)[C@H](CC(=O)O)NC(=O)[C@H](CO)NC(=O)[C@@H](NC(=O)[C@H](Cc1ccccc1)NC(=O)[C@@H](NC(=O)CNC(=O)[C@H](CCC(=O)O)NC(=O)C(C)(C)NC(=O)[C@@H](N)Cc1ccc(O)cc1)[C@@H](C)O)[C@@H](C)O)C(=O)NC(C)(C)C(=O)N[C@@H](CC(C)C)C(=O)N[C@@H](CC(=O)O)C(=O)N[C@@H](CCCCN)C(=O)N[C@@H](CCCCNC(=O)COCCOCCNC(=O)COCCOCCNC(=O)CC[C@H](NC(=O)CCCCCCCCCCCCCCCCC(=O)O)C(=O)O)C(=O)N[C@@H](C)C(=O)N[C@@H](CCC(N)=O)C(=O)N[C@@H](CCCNC(=N)N)C(=O)N[C@@H](C)C(=O)N[C@@H](Cc1ccccc1)C(=O)N[C@H](C(=O)N[C@@H](CCC(=O)O)C(=O)N[C@@H](Cc1c[nH]c2ccccc12)C(=O)N[C@@H](CC(C)C)C(=O)N[C@@H](CC(C)C)C(=O)N[C@@H](C)C(=O)N[C@@H](CCC(N)=O)C(=O)NCC(=O)N1CCC[C@H]1C(=O)N[C@@H](CO)C(=O)N[C@@H](CO)C(=O)NCC(=O)N[C@@H](C)C(=O)N1CCC[C@H]1C(=O)N1CCC[C@H]1C(=O)N1CCC[C@H]1C(=O)N[C@@H](CO)C(N)=O)C(C)C [Compound 11] (H-Y[Aib]EGTFTSDYSI[Aib]LDKK([AEEA-AEEA-γGlu-C18 diacid])AQRAFVEWLLAQGPSSGAPPPS-NH2) | 11.33 | 11.30 | 11.30 | 10.89 | 10.89 | –
2 | CC[C@H](C)[C@H](NC(=O)[C@H](CO)NC(=O)[C@H](Cc1ccc(O)cc1)NC(=O)[C@H](CC(=O)O)NC(=O)[C@H](CO)NC(=O)[C@@H](NC(=O)[C@H](Cc1ccccc1)NC(=O)[C@@H](NC(=O)CNC(=O)[C@H](CCC(=O)O)NC(=O)C(C)(C)NC(=O)[C@@H](N)Cc1ccc(O)cc1)[C@@H](C)O)[C@@H](C)O)C(=O)N[C@@H](Cc1ccc(O)cc1)C(=O)N[C@@H](CC(C)C)C(=O)N[C@@H](CC(=O)O)C(=O)N[C@@H](CCCCN)C(=O)N[C@@H](CCCCNC(=O)COCCOCCNC(=O)COCCOCCNC(=O)CC[C@H](NC(=O)CCCCCCCCCCCCCCCCC(=O)O)C(=O)O)C(=O)N[C@@H](C)C(=O)N[C@@H](CCC(N)=O)C(=O)N[C@@H](CCCNC(=N)N)C(=O)N[C@@H](C)C(=O)N[C@@H](Cc1ccccc1)C(=O)N[C@H](C(=O)N[C@@H](CC(N)=O)C(=O)N[C@@H](Cc1c[nH]c2ccccc12)C(=O)N[C@@H](CC(C)C)C(=O)N[C@@H](CC(C)C)C(=O)N[C@@H](C)C(=O)NC(C)(C)C(=O)N[C@@H](CCCCN)C(N)=O)C(C)C [Compound 12] (H-Y[Aib]EGTFTSDYSIYLDKK([AEEA-AEEA-γGlu-C18 diacid])AQRAFVNWLLA[Aib]K-NH2) | 10.96 | 10.92 | – | 10.80 | 10.77 | –
3 | CC[C@H](C)[C@H](NC(=O)[C@H](Cc1ccccc1)NC(=O)[C@H](CCC(=O)O)NC(=O)[C@H](CCCCN)NC(=O)[C@H](C)NC(=O)[C@H](C)NC(=O)[C@H](CCCCNC(=O)COCCOCCNC(=O)COCCOCCNC(=O)CC[C@H](NC(=O)CCCCCCCCCCCCCCCCC(=O)O)C(=O)O)NC(=O)[C@H](CCC(=O)O)NC(=O)[C@H](CC(=O)O)NC(=O)[C@H](CC(C)C)NC(=O)[C@H](Cc1ccc(O)cc1)NC(=O)[C@@H](NC(=O)[C@H](CO)NC(=O)[C@H](Cc1ccc(O)cc1)NC(=O)[C@H](CC(=O)O)NC(=O)[C@H](CO)NC(=O)[C@@H](NC(=O)[C@H](Cc1ccccc1)NC(=O)[C@@H](NC(=O)CNC(=O)[C@H](CCC(=O)O)NC(=O)C(C)(C)NC(=O)[C@@H](N)Cc1ccc(O)cc1)[C@@H](C)O)[C@@H](C)O)[C@@H](C)CC)C(=O)N[C@@H](CCC(=O)O)C(=O)N[C@@H](Cc1c[nH]c2ccccc12)C(=O)N[C@@H](CC(C)C)C(=O)N[C@@H](CCC(=O)O)C(=O)N[C@@H](CO)C(=O)N[C@@H](C)C(N)=O [Compound 13] | – | – | 9.82 | – | – | 10.24
4 | CC[C@H](C)[C@H](NC(=O)[C@H](CO)NC(=O)[C@H](Cc1ccc(O)cc1)NC(=O)[C@H](CC(=O)O)NC(=O)[C@H](CO)NC(=O)[C@@H](NC(=O)[C@H](Cc1ccccc1)NC(=O)[C@@H](NC(=O)CNC(=O)[C@H](CCC(=O)O)NC(=O)C(C)(C)NC(=O)[C@@H](N)Cc1ccc(O)cc1)[C@@H](C)O)[C@@H](C)O)C(=O)N[C@@H](C)C(=O)N[C@@H](CC(C)C)C(=O)N[C@@H](CC(=O)O)C(=O)N[C@@H](CCCCN)C(=O)N[C@@H](CCCCNC(=O)COCCOCCNC(=O)COCCOCCNC(=O)CC[C@H](NC(=O)CCCCCCCCCCCCCCCCC(=O)O)C(=O)O)C(=O)N[C@@H](C)C(=O)N[C@@H](CCC(N)=O)C(=O)N[C@@H](CCCNC(=N)N)C(=O)N[C@@H](C)C(=O)N[C@@H](Cc1ccccc1)C(=O)N[C@H](C(=O)N[C@@H](CC(N)=O)C(=O)N[C@@H](Cc1c[nH]c2ccccc12)C(=O)N[C@@H](CC(C)C)C(=O)N[C@H](C(=O)N[C@@H](C)C(=O)NC(C)(C)C(=O)N[C@@H](CCCCN)C(=O)N1CCC[C@H]1C(=O)N[C@@H](CO)C(=O)N[C@@H](CO)C(=O)NCC(=O)N[C@@H](C)C(=O)N1CCC[C@H]1C(=O)N1CCC[C@H]1C(=O)N1CCC[C@H]1C(=O)N[C@@H](CO)C(N)=O)C(C)C)C(C)C [Compound 14] | 11.19 | – | 11.22 | 11.10 | – | 11.10
5 | CC[C@H](C)[C@H](NC(=O)[C@H](Cc1ccccc1)NC(=O)[C@H](CCC(=O)O)NC(=O)[C@H](CCCCN)NC(=O)[C@H](C)NC(=O)[C@H](C)NC(=O)[C@H](CCCCNC(=O)COCCOCCNC(=O)COCCOCCNC(=O)CC[C@H](NC(=O)CCCCCCCCCCCCCCCCC(=O)O)C(=O)O)NC(=O)[C@H](CCC(=O)O)NC(=O)[C@H](CC(=O)O)NC(=O)[C@H](CC(C)C)NC(=O)[C@H](Cc1ccc(O)cc1)NC(=O)[C@@H](NC(=O)[C@H](CO)NC(=O)[C@H](Cc1ccc(O)cc1)NC(=O)[C@H](CC(=O)O)NC(=O)[C@H](CO)NC(=O)[C@@H](NC(=O)[C@H](Cc1ccccc1)NC(=O)[C@@H](NC(=O)CNC(=O)[C@H](CCC(=O)O)NC(=O)C(C)(C)NC(=O)[C@@H](N)Cc1ccc(O)cc1)[C@@H](C)O)[C@@H](C)O)[C@@H](C)CC)C(=O)N[C@@H](CCC(=O)O)C(=O)N[C@@H](Cc1c[nH]c2ccccc12)C(=O)N[C@@H](CC(C)C)C(=O)N[C@@H](CCC(=O)O)C(=O)N[C@@H](CO)C(=O)N[C@@H](C)C(N)=O [Compound 14] | – | 9.83 | – | – | 10.25 | –
6 | CC[C@H](C)[C@H](NC(=O)[C@H](CO)NC(=O)[C@H](Cc1ccc(O)cc1)NC(=O)[C@H](CC(=O)O)NC(=O)[C@H](CO)NC(=O)[C@@H](NC(=O)[C@H](Cc1ccccc1)NC(=O)[C@@H](NC(=O)CNC(=O)[C@H](CCC(=O)O)NC(=O)C(C)(C)NC(=O)[C@@H](N)Cc1ccc(O)cc1)[C@@H](C)O)[C@@H](C)O)C(=O)N[C@@H](C)C(=O)N[C@@H](CC(C)C)C(=O)N[C@@H](CC(=O)O)C(=O)N[C@@H](CCCCN)C(=O)N[C@@H](CCCCNC(=O)COCCOCCNC(=O)COCCOCCNC(=O)CC[C@H](NC(=O)CCCCCCCCCCCCCCCCC(=O)O)C(=O)O)C(=O)N[C@@H](C)C(=O)N[C@@H](CCC(N)=O)C(=O)N[C@@H](CCCNC(=N)N)C(=O)N[C@@H](C)C(=O)N[C@@H](Cc1ccccc1)C(=O)N[C@H](C(=O)N[C@@H](CC(N)=O)C(=O)N[C@@H](Cc1c[nH]c2ccccc12)C(=O)N[C@@H](CC(C)C)C(=O)N[C@H](C(=O)N[C@@H](C)C(=O)NC(C)(C)C(=O)N[C@@H](CCCCN)C(=O)N1CCC[C@H]1C(=O)N[C@@H](CO)C(=O)N[C@@H](CO)C(=O)NCC(=O)N[C@@H](C)C(=O)N1CCC[C@H]1C(=O)N1CCC[C@H]1C(=O)N1CCC[C@H]1C(=O)N[C@@H](CO)C(N)=O)C(C)C)C(C)C [Compound 15] | – | 11.22 | – | – | 11.10 | –
